Assay results from ChEMBL document CHEMBL4118189, “Discovery of novel N-hydroxy-2-arylisoindoline-4-carboxamides as potent and selective inhibitors of HDAC11” (Bioorg Med Chem Lett, 2018).
pIC50: −log10 of the molar value. Values after ≈ are worked out from the molar mass of the structure shown.

Columns and labels:
[1] = biological target: T1, Histone deacetylase 11 (Homo sapiens, UniProt Q96DB2); assay: Inhibition of full length recombinant human HDAC11 expressed in baculoviral expression system using FAM-RHKK as substrate by electrophoretic mobility shift assay
T1 sequence (Q96DB2 whole entry): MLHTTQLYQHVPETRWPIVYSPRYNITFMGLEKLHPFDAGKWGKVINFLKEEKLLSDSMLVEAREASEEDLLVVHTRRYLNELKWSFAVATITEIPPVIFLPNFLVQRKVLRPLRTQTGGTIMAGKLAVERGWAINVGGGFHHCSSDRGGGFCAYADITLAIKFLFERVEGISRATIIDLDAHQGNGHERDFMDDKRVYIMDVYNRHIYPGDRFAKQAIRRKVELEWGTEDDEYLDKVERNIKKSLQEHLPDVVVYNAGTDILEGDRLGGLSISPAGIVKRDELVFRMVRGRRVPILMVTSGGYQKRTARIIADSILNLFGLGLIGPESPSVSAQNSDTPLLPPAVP

[2] = biological target: T2, Protein deacetylase HDAC6 (Homo sapiens, UniProt Q9UBN7); assay: Inhibition of full length recombinant human HDAC6 using fluorescent-labeled peptide as substrate by electrophoretic mobility shift assay
T2 sequence (Q9UBN7 whole entry): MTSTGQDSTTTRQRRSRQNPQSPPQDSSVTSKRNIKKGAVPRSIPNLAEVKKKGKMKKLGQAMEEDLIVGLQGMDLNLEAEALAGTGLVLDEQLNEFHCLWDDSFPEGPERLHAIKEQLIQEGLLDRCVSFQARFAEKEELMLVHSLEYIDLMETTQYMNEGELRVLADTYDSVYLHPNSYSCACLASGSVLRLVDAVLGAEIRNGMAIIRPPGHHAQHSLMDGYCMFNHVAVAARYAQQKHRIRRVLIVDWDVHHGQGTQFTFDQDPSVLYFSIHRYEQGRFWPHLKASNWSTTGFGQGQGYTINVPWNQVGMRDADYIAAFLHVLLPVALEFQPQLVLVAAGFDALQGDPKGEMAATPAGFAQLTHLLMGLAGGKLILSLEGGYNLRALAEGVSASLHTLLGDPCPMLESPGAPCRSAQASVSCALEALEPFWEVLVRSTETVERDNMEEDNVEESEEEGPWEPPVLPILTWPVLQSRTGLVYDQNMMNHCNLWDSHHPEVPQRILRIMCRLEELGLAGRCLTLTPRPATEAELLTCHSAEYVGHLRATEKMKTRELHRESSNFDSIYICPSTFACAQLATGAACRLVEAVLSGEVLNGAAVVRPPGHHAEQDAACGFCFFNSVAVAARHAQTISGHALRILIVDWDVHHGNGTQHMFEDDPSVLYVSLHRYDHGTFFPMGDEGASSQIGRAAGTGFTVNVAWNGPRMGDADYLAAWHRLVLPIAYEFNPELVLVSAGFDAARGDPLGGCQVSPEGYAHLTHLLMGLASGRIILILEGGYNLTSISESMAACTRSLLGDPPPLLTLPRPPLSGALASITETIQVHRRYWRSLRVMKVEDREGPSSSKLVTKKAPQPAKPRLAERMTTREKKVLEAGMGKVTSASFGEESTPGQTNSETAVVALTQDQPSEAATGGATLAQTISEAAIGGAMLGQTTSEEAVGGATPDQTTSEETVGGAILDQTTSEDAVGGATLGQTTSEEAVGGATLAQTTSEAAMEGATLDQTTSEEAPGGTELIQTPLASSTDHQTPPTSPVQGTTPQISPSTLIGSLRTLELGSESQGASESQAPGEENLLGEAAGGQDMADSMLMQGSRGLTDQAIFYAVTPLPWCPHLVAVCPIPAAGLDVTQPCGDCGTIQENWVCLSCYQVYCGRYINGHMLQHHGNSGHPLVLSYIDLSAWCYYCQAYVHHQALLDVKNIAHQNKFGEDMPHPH

[3] = Permeability of the compound by PAMPA; type: ADME; settings: read-out: permeability
[4] = Kinetic solubility of the compound at pH 7.4; type: physicochemical; settings: buffer, read-out: Kinetic_solubility
[5] = Intrinsic clearance in mouse liver microsomes; type: ADME, microsome; settings: read-out: CLH
[6] = biological target: T1, Histone deacetylase 11; assay: Inhibition of NanoLuc-tagged HDAC11 (unknown origin) by BRET assay
[7] = biological target: T3, Polyamine deacetylase HDAC10 (Homo sapiens, UniProt Q969S8); assay: Inhibition of full length recombinant human HDAC10 using fluorescent-labeled peptide as substrate by electrophoretic mobility shift assay
T3 sequence (Q969S8 whole entry): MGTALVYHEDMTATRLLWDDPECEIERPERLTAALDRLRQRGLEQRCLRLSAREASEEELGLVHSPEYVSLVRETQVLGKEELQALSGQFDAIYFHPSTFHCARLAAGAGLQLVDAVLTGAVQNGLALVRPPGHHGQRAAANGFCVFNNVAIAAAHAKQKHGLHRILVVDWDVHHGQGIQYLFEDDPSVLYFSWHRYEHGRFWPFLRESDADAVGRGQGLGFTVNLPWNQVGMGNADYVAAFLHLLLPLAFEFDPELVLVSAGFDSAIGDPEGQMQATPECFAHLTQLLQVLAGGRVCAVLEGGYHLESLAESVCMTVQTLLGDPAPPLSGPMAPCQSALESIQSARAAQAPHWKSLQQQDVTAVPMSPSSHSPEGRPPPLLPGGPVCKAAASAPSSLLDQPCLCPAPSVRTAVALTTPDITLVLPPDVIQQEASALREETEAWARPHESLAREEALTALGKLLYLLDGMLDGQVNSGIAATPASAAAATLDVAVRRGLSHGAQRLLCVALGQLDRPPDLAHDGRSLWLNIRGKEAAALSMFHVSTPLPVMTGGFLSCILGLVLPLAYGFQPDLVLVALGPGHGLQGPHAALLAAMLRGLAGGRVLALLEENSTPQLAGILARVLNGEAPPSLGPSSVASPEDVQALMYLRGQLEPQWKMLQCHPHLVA

[8] = biological target: Histone deacetylase 2 (Homo sapiens, UniProt Q92769); assay: Inhibition of full length recombinant human HDAC2 using fluorescent-labeled peptide as substrate by electrophoretic mobility shift assay
Sequence of Histone deacetylase 2 (Q92769 whole entry): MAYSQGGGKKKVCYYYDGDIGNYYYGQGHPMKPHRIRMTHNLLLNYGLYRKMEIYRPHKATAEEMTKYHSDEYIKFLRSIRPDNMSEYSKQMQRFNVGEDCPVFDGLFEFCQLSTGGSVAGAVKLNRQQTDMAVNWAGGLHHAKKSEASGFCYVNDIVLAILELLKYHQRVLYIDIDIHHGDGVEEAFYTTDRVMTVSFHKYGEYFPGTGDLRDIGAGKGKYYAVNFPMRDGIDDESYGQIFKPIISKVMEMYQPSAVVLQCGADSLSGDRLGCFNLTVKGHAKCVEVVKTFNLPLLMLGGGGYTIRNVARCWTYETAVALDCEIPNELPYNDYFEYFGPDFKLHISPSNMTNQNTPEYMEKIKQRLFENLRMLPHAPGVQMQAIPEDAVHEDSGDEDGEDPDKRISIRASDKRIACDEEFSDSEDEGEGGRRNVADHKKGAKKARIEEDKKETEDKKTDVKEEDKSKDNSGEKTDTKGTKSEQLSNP

[9] = biological target: Histone deacetylase 5 (Homo sapiens, UniProt Q9UQL6); assay: Inhibition of full length recombinant human HDAC5 using fluorescent-labeled peptide as substrate by electrophoretic mobility shift assay
Sequence of Histone deacetylase 5 (Q9UQL6 whole entry): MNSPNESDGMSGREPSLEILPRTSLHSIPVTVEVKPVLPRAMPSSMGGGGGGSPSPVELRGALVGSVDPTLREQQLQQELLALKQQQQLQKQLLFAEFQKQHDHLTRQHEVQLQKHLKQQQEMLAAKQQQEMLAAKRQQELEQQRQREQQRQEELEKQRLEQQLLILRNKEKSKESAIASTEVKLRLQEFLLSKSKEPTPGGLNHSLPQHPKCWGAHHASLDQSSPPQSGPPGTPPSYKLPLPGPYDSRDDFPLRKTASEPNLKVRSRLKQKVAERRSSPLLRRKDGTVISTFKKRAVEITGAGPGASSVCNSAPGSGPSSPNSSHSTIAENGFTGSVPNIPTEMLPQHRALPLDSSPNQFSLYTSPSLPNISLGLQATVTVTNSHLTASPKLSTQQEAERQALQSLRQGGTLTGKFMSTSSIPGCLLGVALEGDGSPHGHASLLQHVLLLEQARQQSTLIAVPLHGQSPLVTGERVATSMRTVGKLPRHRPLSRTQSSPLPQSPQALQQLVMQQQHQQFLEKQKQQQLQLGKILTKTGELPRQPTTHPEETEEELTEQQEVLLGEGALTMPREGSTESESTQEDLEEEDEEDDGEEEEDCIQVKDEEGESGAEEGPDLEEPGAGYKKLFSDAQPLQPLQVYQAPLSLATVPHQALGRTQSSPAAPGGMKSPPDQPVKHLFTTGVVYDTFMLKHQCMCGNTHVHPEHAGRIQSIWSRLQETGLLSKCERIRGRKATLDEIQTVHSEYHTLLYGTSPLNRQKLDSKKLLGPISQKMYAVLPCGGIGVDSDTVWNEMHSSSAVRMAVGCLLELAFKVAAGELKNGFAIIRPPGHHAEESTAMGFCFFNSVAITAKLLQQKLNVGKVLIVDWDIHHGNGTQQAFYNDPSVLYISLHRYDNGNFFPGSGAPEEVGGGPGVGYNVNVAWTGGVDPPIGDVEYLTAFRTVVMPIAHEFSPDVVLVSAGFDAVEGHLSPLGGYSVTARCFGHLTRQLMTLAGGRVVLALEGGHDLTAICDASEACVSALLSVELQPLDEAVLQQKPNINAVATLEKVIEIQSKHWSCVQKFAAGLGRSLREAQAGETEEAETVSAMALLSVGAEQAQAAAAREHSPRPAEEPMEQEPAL

[10] = biological target: T4, Histone deacetylase 7 (Homo sapiens, UniProt Q8WUI4); assay: Inhibition of full length recombinant human HDAC7 using fluorescent-labeled peptide as substrate by electrophoretic mobility shift assay
T4 sequence (Q8WUI4 whole entry): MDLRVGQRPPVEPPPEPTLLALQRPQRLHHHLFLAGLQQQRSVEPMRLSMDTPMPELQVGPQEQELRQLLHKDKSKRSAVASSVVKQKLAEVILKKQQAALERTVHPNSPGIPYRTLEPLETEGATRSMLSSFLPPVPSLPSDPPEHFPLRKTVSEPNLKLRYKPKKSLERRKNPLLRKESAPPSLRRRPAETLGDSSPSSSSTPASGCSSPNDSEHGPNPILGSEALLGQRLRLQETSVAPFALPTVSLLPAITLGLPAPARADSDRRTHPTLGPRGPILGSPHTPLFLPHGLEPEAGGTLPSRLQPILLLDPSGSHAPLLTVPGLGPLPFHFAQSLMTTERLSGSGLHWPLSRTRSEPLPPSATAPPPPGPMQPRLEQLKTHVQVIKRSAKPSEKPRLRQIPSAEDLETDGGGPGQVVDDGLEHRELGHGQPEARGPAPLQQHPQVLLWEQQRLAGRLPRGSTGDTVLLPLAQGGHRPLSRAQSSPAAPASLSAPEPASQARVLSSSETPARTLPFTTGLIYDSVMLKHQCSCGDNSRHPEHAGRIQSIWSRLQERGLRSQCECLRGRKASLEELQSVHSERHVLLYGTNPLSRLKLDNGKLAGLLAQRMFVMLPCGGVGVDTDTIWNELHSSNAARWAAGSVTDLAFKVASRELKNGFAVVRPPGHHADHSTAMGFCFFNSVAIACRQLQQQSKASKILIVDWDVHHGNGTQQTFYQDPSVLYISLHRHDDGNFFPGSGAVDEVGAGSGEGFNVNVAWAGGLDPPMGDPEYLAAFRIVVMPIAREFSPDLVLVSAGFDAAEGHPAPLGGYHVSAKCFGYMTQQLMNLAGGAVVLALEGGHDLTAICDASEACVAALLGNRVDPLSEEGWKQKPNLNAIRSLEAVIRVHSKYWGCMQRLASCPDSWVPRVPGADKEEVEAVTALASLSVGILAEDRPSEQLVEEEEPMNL

[11] = biological target: Histone deacetylase 1 (Homo sapiens, UniProt Q13547); assay: Inhibition of full length recombinant human HDAC1 using fluorescent-labeled peptide as substrate by electrophoretic mobility shift assay
Sequence of Histone deacetylase 1 (Q13547 whole entry): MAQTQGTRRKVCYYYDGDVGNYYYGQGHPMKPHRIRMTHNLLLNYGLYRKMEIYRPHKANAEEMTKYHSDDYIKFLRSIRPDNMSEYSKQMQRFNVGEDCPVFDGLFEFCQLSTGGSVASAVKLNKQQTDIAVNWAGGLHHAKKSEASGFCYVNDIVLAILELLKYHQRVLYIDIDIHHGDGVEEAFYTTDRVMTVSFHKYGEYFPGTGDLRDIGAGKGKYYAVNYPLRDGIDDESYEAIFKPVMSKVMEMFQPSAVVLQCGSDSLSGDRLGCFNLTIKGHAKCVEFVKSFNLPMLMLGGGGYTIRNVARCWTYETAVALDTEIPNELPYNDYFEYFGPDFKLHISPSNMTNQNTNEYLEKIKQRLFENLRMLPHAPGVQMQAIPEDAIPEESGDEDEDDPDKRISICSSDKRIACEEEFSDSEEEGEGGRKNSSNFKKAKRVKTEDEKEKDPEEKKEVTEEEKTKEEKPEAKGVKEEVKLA

[12] = biological target: Histone deacetylase 3 (Homo sapiens, UniProt O15379); assay: Inhibition of full length recombinant human HDAC3 using fluorescent-labeled peptide as substrate by electrophoretic mobility shift assay
Sequence of Histone deacetylase 3 (O15379 whole entry): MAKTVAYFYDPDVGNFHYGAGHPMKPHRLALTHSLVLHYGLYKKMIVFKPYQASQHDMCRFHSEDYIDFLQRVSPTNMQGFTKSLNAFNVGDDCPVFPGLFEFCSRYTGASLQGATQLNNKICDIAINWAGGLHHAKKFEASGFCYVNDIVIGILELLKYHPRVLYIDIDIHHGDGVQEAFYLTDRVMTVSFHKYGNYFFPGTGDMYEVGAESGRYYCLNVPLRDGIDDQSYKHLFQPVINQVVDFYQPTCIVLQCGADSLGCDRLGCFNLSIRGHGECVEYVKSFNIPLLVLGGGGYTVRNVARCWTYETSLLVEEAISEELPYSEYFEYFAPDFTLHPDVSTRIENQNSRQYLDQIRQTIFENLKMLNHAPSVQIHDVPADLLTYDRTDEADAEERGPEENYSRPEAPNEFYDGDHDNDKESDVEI

[13] = biological target: Histone deacetylase 9 (Homo sapiens, UniProt Q9UKV0); assay: Inhibition of full length recombinant human HDAC9 using fluorescent-labeled peptide as substrate by electrophoretic mobility shift assay
Sequence of Histone deacetylase 9 (Q9UKV0 whole entry): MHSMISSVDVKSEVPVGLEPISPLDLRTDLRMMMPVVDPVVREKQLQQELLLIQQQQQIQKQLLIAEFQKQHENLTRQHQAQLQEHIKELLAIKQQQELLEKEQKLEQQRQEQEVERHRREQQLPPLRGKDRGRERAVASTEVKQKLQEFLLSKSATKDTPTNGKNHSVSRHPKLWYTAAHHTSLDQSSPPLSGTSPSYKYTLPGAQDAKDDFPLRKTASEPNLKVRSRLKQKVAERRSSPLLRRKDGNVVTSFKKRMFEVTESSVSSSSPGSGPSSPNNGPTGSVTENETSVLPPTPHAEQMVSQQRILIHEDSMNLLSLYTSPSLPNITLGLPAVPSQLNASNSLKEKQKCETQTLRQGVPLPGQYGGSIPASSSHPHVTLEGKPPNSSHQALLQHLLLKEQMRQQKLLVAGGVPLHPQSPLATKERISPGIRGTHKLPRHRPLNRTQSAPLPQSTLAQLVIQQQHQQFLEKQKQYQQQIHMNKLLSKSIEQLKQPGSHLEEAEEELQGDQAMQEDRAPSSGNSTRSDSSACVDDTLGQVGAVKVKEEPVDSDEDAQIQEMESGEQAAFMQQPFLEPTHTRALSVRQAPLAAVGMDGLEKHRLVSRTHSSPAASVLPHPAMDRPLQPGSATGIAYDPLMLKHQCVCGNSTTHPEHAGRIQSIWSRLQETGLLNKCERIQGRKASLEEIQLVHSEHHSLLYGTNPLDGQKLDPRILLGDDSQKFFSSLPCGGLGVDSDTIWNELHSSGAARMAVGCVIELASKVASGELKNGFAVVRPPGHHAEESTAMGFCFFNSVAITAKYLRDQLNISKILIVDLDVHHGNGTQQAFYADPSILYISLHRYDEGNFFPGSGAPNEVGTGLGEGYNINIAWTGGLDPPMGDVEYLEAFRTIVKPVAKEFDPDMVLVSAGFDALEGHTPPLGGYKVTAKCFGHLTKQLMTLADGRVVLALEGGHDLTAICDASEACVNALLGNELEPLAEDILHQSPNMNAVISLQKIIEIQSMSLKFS

[14] = Half life in Balb/c nude mouse at 1 mg/kg, iv; type: ADME, organism-based; settings: in vivo
[15] = Volume of distribution at steady state in Balb/c nude mouse at 1 mg/kg, iv; type: ADME, organism-based; settings: in vivo, read-out: Vdss
[16] = AUClast in Balb/c nude mouse at 1 mg/kg, iv; type: ADME, organism-based; design: dose 1 mg/kg, time 0 - last, route intravenous; settings: in vivo
[17] = Initial plasma concentration in Balb/c nude mouse at 1 mg/kg, iv; type: ADME, organism-based
[18] = Clearance in Balb/c nude mouse at 1 mg/kg, iv; type: ADME, organism-based; settings: in vivo
[19] = AUClast in Balb/c nude mouse at 5 mg/kg, ip; type: ADME, organism-based; design: dose 5 mg/kg, time 0 - last, route intraperitoneal; settings: in vivo
[20] = Cmax in Balb/c nude mouse at 5 mg/kg, ip; type: ADME, organism-based; design: dose 5 mg/kg, route intraperitoneal; settings: in vivo
[21] = Bioavailability in Balb/c nude mouse at 5 mg/kg, ip; type: ADME, organism-based; settings: in vivo
[22] = Half life in Balb/c nude mouse at 5 mg/kg, ip; type: ADME, organism-based; settings: in vivo

SMILES	pIC50 [1]	pIC50 [2]	Papp [3]	solubility kinetic [4]	microsomal CLint [5]	other results
O=C(NO)c1ccc2c(c1)CCN(c1nc3ccccc3[nH]1)C2	< 5.00	8.70	–	–	–	–
CC1(C)c2cccc(C(=O)NO)c2CN1c1nc2ccc(C(F)(F)F)cc2[nH]1	8.70	–	1 nm/s	51 µM (≈ 19.9 µg/mL)	12 µL/min/mg	–
O=C(NO)c1cccc2c1CN(C1=NC3CCCCC3N1)C2 (stereo unspecified)	6.52	–	–	–	317 µL/min/mg	–
Cc1nc(N2Cc3cccc(C(=O)NO)c3C2)[nH]c1C	5.64	–	–	–	88 µL/min/mg	–
CC1(C)c2cccc(C(=O)NO)c2CN1c1cnc(C(F)(F)F)nc1	7.57	–	–	82 µM (≈ 28.9 µg/mL)	7 µL/min/mg	pIC50 [6]: 6.57
CC1(C)c2cccc(C(=O)NO)c2CN1c1ncc(C(F)(F)F)cn1	8.30	–	180 nm/s	32 µM (≈ 11.3 µg/mL)	21 µL/min/mg	pIC50 [6]: 7.07
O=C(NO)c1cccc2c1CCN(c1nc3ccccc3[nH]1)C2	5.92	< 5.00	–	–	< 7 µL/min/mg	–
O=C(NO)c1cccc2c1CCN(c1nc3ccccc3[nH]1)CC2	7.52	5.55	–	–	161 µL/min/mg	–
CC1(C)c2cccc(C(=O)NO)c2CN1c1ccc(C(F)(F)F)nc1	8.52	–	80 nm/s	51 µM (≈ 17.9 µg/mL)	12 µL/min/mg	pIC50 [6]: 7.92
CC1(C)c2cccc(C(=O)NO)c2CN1c1cnc(C(F)(F)F)cn1	–	< 5.00	130 nm/s	31 µM (≈ 10.9 µg/mL)	22 µL/min/mg	pIC50 [7]: < 5.00; pIC50 [8]: < 5.00; pIC50 [9]: < 5.00; pIC50 [10]: < 5.00; pIC50 [11]: < 5.00; pIC50 [12]: < 5.00; pIC50 [13]: < 5.00
O=C(NO)c1ccc2c(c1)CN(c1nc3ccccc3[nH]1)CC2	5.68	8.40	–	–	–	half-life [14]: 9.4 h; Vd [15]: 18 L/kg; AUC(0-t) [16]: 1000 nM·h; C0 [17]: 3.5 µM; clearance [18]: 2.52 L/h/kg
CC1(C)c2cccc(C(=O)NO)c2CN1c1nc2ncccc2o1	8.70	–	7 nm/s	78 µM (≈ 25.3 µg/mL)	7 µL/min/mg	pIC50 [6]: 7.70
O=C(NO)c1cccc2c1CN(c1nc3ccccc3[nH]1)CC2	5.34	7.09	–	–	–	–
CC1(C)c2cccc(C(=O)NO)c2CN1c1nc2cc(C(F)(F)F)ccc2o1	9.00	–	70 nm/s	4 µM (≈ 1.57 µg/mL)	10 µL/min/mg	–

Continued, in another order:

pIC50 [1]	pIC50 [2]	Papp [3]	solubility kinetic [4]	microsomal CLint [5]	SMILES	other results
8.15	–	–	–	313 µL/min/mg	O=C(NO)c1cccc2c1CN(c1nc3ccccc3o1)C2	–
8.15	–	–	–	81 µL/min/mg	O=C(NO)c1cccc2c1CN(c1ccc(C(F)(F)F)cn1)C2	–
7.59	–	–	–	92 µL/min/mg	O=C(NO)c1cccc2c1CN(c1ccc3ccccc3n1)C2	–
8.70	–	–	–	140 µL/min/mg	O=C(NO)c1cccc2c1CN(c1nc3ccc(C(F)(F)F)cc3[nH]1)C2	–
7.46	–	–	–	323 µL/min/mg	O=C(NO)c1cccc2c1CN(c1nc3ccccc3s1)C2	–
6.77	< 5.00	–	–	17 µL/min/mg	O=C(NO)c1cccc2c1CN(c1nc3ccccc3[nH]1)C2	AUC(0-t) [19]: 3800 nM·h; Cmax [20]: 4.2 µM; bioavailability [21]: 81%; half-life [22]: 10.2 h
8.22	–	120 nm/s	8 µM (≈ 2.81 µg/mL)	28 µL/min/mg	CC1(C)c2cccc(C(=O)NO)c2CN1c1ccc(C(F)(F)F)cn1	pIC50 [6]: 6.89
